Values joined by “and” are separate entries in the source; they are usually repeats but may differ in a detail not shown here. Equal entries are not always repeated. Where two headings read alike, the source gives them in different places.
Experiments:
[1] = target: T1, CCK2 (CCKB) (h) (agonist radioligand) (Homo sapiens, UniProt P32239); experiment: SafetyScreen87 panel
T1 construct: purchased DiscoverX KINOMEscan scanEDGE; Eurofins Cerep SafetyScreen87
Procedure: (§1) The possibility of KDS12025 on kinase off-target, the KINOMEscan panel of scanEDGE assay was conducted in DiscoverX (CA, USA) using a site-directed competition binding with the test compounds. The assay results are given in Supplementary Table 4 and experimental information is available on the DiscoverX web page (www.discoverx.com). Moreover, the Delta SafetyScreen87 panel assay was conducted in Eurofins Discovery (Cerep, France). The assay results are given in Supplementary Table 5 and experimental information is available on the DiscoverX web page (https://www.eurofinsdiscoveryservices.com).

[2] = target: T2, PR (h) (agonist radioligand) (Homo sapiens, UniProt P06401); experiment: SafetyScreen87 panel; conditions: read-out: % Inhibition of Control Specific Binding (1st, 2nd, Mean); 1.0E-06 M
T2 construct: purchased DiscoverX KINOMEscan scanEDGE; Eurofins Cerep SafetyScreen87
Procedure: as §1

[3] = target: T3, 5-HT2A (h) (agonist radioligand) (Homo sapiens, UniProt P28223); experiment: SafetyScreen87 panel; conditions: 1.0E-06 M; mean; read-out: % Inhibition of Control Specific Binding (1st, 2nd, Mean)
T3 construct: purchased DiscoverX KINOMEscan scanEDGE; Eurofins Cerep SafetyScreen87
T3 sequence (P28223 whole entry): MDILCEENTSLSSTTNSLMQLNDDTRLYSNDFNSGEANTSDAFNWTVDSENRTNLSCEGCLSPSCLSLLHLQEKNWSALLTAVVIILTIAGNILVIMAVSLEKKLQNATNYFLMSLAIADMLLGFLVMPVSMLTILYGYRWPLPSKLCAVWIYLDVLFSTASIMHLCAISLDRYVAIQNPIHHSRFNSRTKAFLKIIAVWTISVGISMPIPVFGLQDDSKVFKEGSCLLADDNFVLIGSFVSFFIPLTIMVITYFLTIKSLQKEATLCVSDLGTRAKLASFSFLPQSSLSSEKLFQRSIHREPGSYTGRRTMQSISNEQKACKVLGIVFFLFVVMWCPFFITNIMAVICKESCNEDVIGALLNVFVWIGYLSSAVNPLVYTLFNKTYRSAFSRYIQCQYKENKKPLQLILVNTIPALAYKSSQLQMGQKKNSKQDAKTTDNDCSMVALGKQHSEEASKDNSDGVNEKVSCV
Procedure: as §1

[4] = target: T4, GABAB(1b) (h) (antagonist radioligand) (Homo sapiens, UniProt Q9UBS5); experiment: SafetyScreen87 panel; conditions: 1.0E-06 M, read-out: % Inhibition of Control Specific Binding (1st, 2nd, Mean)
T4 construct: purchased DiscoverX KINOMEscan scanEDGE; Eurofins Cerep SafetyScreen87
T4 sequence (Q9UBS5 1-844 isoform Q9UBS5-2): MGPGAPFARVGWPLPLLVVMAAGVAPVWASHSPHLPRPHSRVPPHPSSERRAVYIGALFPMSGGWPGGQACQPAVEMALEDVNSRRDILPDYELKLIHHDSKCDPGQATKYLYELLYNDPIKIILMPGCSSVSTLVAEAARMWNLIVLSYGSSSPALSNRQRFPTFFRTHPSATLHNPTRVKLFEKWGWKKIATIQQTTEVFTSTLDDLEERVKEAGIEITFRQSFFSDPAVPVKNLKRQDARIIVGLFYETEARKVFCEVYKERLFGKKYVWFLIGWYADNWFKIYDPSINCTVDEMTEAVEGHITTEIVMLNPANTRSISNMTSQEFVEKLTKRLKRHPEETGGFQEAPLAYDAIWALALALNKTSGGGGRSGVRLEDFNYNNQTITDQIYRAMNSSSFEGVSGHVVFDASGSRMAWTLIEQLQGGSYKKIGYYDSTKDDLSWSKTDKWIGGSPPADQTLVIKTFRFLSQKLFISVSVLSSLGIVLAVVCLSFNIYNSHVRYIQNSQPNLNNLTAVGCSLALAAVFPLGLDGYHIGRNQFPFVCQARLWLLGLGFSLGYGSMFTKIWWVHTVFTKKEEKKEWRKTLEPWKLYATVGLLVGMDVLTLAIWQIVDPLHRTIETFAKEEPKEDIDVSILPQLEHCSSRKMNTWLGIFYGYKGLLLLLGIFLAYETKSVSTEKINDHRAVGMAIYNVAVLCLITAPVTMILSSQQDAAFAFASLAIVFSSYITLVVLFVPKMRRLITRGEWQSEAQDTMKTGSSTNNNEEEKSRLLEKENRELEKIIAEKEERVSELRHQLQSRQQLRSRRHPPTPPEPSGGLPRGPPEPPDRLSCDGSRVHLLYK
Procedure: as §1

[5] = target: T5, MC4 (h) (agonist radioligand) (Homo sapiens, UniProt P32245); experiment: SafetyScreen87 panel; conditions: 1.0E-06 M; read-out: % Inhibition of Control Specific Binding (1st, 2nd, Mean)
T5 construct: purchased DiscoverX KINOMEscan scanEDGE; Eurofins Cerep SafetyScreen87
T5 sequence (P32245 whole entry): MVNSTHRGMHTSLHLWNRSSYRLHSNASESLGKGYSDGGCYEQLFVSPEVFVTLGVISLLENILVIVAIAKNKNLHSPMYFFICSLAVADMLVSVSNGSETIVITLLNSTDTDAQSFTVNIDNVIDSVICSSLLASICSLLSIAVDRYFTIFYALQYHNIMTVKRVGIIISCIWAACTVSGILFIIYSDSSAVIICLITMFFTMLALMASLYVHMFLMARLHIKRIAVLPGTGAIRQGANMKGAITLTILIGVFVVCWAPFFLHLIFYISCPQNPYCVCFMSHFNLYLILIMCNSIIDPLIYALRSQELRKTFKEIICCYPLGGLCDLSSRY
Procedure: as §1

[6] = target: T6, MC1 (agonist radioligand) (Mus musculus, UniProt Q01727); experiment: SafetyScreen87 panel; conditions: 1.0E-06 M; mean; read-out: % Inhibition of Control Specific Binding (1st, 2nd, Mean)
T6 construct: purchased DiscoverX KINOMEscan scanEDGE; Eurofins Cerep SafetyScreen87
T6 sequence (Q01727 whole entry): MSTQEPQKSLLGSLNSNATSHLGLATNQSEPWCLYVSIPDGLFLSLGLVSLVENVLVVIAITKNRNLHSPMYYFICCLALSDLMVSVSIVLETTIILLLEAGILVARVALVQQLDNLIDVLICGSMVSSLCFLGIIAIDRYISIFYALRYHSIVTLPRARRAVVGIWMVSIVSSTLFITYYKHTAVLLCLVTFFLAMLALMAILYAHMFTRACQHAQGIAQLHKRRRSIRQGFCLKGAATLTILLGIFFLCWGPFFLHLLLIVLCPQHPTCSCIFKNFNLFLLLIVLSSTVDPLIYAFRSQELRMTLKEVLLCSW
Procedure: as §1

[7] = target: T7, CCR1 (h) (agonist radioligand) (Homo sapiens, UniProt P32246); experiment: SafetyScreen87 panel
T7 construct: purchased DiscoverX KINOMEscan scanEDGE; Eurofins Cerep SafetyScreen87
T7 sequence (P32246 whole entry): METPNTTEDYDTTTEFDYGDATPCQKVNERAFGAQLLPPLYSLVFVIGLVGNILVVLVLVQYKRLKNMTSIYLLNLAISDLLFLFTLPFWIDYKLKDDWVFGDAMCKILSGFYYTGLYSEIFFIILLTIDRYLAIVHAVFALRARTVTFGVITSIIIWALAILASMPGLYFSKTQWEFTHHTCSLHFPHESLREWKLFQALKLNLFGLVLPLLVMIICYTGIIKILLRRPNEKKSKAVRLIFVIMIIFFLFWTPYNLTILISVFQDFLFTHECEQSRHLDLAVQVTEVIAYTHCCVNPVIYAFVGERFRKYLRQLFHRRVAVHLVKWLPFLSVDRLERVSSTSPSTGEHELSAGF
Procedure: as §1

[8] = target: T8, GR (h) (agonist radioligand) (Homo sapiens, UniProt P04150); experiment: SafetyScreen87 panel; conditions: 1.0E-06 M; mean; read-out: % Inhibition of Control Specific Binding (1st, 2nd, Mean)
T8 construct: purchased DiscoverX KINOMEscan scanEDGE; Eurofins Cerep SafetyScreen87
T8 sequence (P04150 whole entry): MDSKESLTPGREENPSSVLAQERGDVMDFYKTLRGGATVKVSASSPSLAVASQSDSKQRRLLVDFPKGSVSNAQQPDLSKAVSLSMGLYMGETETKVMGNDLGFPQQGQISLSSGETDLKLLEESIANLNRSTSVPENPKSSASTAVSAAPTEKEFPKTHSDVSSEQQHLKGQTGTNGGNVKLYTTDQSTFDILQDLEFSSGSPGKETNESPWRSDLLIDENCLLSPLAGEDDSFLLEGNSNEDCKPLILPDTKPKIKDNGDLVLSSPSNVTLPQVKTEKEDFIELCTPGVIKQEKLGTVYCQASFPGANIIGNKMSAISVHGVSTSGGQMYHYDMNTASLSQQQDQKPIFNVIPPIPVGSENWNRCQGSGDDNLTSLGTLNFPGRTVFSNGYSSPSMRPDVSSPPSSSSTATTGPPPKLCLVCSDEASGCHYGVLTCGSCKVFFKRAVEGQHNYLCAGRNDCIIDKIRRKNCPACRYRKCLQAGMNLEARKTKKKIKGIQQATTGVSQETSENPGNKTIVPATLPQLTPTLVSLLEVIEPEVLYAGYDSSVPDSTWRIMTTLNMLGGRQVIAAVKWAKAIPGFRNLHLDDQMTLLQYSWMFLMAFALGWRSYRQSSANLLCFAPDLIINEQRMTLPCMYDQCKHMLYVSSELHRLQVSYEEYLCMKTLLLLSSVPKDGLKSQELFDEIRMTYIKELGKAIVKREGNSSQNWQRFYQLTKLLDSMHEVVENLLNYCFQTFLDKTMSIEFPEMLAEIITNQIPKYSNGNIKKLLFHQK
Procedure: as §1

[9] = target: T9, CXCR2 (IL-8B) (h) (agonist radioligand) (Homo sapiens, UniProt P25025); experiment: SafetyScreen87 panel
T9 construct: purchased DiscoverX KINOMEscan scanEDGE; Eurofins Cerep SafetyScreen87
T9 sequence (P25025 whole entry): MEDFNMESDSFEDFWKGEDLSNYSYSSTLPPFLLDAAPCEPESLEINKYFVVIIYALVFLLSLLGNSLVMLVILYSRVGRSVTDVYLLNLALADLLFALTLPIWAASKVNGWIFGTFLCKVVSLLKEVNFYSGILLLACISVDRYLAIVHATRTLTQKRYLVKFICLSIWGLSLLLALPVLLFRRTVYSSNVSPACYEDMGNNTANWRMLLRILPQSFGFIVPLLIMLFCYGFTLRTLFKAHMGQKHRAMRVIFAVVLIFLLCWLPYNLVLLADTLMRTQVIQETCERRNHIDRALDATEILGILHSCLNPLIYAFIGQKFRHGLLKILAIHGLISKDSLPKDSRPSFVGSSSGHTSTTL
Procedure: as §1

[10] = target: T10, 5-HT3 (h) (antagonist radioligand) (Homo sapiens, UniProt P46098); experiment: SafetyScreen87 panel; conditions: 1.0E-06 M; read-out: % Inhibition of Control Specific Binding (1st, 2nd, Mean)
T10 construct: purchased DiscoverX KINOMEscan scanEDGE; Eurofins Cerep SafetyScreen87
T10 sequence (P46098 24-478): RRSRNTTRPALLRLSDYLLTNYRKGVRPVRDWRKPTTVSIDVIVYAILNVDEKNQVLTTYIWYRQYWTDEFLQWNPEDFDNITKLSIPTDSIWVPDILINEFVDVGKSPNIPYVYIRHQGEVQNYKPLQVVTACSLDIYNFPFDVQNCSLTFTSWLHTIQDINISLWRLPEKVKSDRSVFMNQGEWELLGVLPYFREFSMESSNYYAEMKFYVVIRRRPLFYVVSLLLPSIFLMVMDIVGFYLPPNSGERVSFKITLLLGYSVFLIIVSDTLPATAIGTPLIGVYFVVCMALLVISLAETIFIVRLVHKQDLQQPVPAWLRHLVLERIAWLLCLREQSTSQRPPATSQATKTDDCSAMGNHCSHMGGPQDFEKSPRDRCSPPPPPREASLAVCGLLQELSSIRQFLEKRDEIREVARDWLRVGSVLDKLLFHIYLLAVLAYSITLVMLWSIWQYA
Procedure: as §1

[11] = target: T11, A2A (h) (agonist radioligand) (Homo sapiens, UniProt P29274); experiment: SafetyScreen87 panel; conditions: 1.0E-06 M, read-out: % Inhibition of Control Specific Binding (1st, 2nd, Mean)
T11 construct: purchased DiscoverX KINOMEscan scanEDGE; Eurofins Cerep SafetyScreen87
T11 sequence (P29274 whole entry): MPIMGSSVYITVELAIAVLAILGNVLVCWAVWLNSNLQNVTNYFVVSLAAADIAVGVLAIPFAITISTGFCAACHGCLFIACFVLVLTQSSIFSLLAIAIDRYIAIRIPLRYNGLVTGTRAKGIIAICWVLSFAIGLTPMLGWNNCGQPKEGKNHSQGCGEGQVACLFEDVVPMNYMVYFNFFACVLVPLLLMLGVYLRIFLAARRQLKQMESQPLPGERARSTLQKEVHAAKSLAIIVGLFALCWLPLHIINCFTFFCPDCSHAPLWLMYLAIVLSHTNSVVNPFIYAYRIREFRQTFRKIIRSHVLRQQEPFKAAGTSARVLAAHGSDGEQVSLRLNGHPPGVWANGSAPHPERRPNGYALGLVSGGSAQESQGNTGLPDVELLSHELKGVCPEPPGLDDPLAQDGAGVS
Procedure: as §1

aged C57BL/6J mice = experiment: Immunohistochemistry, aging mice; format: in vivo, mouse; conditions: 30 month, 1 mg/kg/day
Procedure: Aged 1-year-old C57BL/6J animals were purchased from Janvier Labs (France) and quarantined in the IBS Animal Facility for 2 weeks before the experiment. The animals were weighed, and their water consumption (in grams) was monitored for 3 days before the appropriate drug concentration was calculated for each dose group. The animals were randomly assigned to the drug/control and dose groups. […] The drug concentration (in water) was modified on the basis of changes in animal weight and corresponding water consumption every 3 months. Basal body temperature and body weight were monitored every 2 weeks. The care and handling of the animals were performed in accordance with the guidelines of the Institutional Animal Care and Use Committee of IBS (Daejeon, South Korea).
The mice were deeply anesthetized with 2% isoflurane and positioned on the operating table. After the abdomen was opened and the heart was exposed, the […] were perfused with saline, followed by 4% paraformaldehyde (PFA) in 0.1 M PBS. The mice were decapitated, and the brains were excised from the skull. Excised brains were postfixed in 4% PFA overnight at 4 °C and dehydrated in 30% sucrose for 48 h. Coronal hippocampal sections were cut at 30 µm thickness with a cryostat and stored in storage solution. For the ALS experiments, lumbar spinal cords (L2–L5) were also carefully dissected and immediately immersed in 4% PFA for postfixation. The sections were fully washed in 0.1 M PBS and incubated for 1 h in blocking solution (0.3% Triton X-100, 2% donkey and goat serum in 0.1 M PBS). Next, a mixture of primary antibodies in the blocking solution was used for immunostaining on a shaker overnight at 4 °C. The sections were washed in PBS three times. After washing, the sections were incubated with the corresponding fluorescent secondary antibodies for 1 h at RT. DAPI staining was performed by adding a DAPI solution (1:2000) during the second washing step. After the washing step was complete, the sections were mounted on cover slides with mounting medium. A series of fluorescence images were obtained with an LSM900 (Zeiss, Germany) confocal microscope or Lattice SIM Elyra 7 (Zeiss, Germany). The 15–22 μm Z stack images in 1–2 μm steps were processed for image analysis, which was performed via the ImageJ (NIH, US) and ZEN digital imaging for light microscopy blue system (Zeiss, Germany) programs. The primary antibodies used were as follows: chicken anti-GFAP (1:500, Millipore, ab5541), rabbit anti-amyloid beta (1:500, Abcam, ab2539), mouse anti-NeuN (1:200, Millipore, ab377), rabbit anti-Hbβ (1:200, Abcam, ab214049), mouse anti-Hbβ (1:200, Santacruz, sc-21757), mouse anti-MAOB (1:200, Santacruz, sc-515354), mouse anti-8-OhdG (1:500, Santacruz, sc-393871), rabbit anti-TH (1:500, Pelfreez, p40101), and mouse anti-TH (1:200, Sigma, T2928). The following secondary antibodies from Jackson were diluted (1:500) in blocking solution: donkey-anti-chicken 405, donkey-anti-chicken 647, donkey-anti-rabbit 488, donkey-anti-rabbit 594, donkey-anti-rabbit 647, donkey-anti-guinea pig 488, donkey-anti-guinea pig 647, donkey-anti-mouse 594, and donkey-anti-mouse 647. Serial confocal sections immunolabeled with GFAP were compiled into a maximal projection to assess the GFAP signal within the hippocampus (Z-stacked images, 15–22 μm Z stack images in 1–2 μm steps of brain sections). Sholl analysis, performed via the ImageJ plugin, automatically generated concentric circles with 10-μm spacing from the nucleus (soma) to the farthest astrocytic process. This analysis quantified the intersections of GFAP-labeled processes within each circle, calculating the ramification index and ending radius, enabling the evaluation of astrocytic hypertrophy and morphological changes, as previously described.[78] In the focal GiD mouse model, NeuN-positive CA1 pyramidal neurons were quantified within a 50 × 50 μm^2 region via ImageJ to determine the number of CA1 pyramidal neurons.

[12] = 1.0E-06 M; read-out: % Inhibition of Control Specific Binding (1st, 2nd, Mean)
[13] = read-out: % Inhibition of Control Specific Binding (1st, 2nd, Mean); 1.0E-06 M

T1 sequence (P32239 whole entry): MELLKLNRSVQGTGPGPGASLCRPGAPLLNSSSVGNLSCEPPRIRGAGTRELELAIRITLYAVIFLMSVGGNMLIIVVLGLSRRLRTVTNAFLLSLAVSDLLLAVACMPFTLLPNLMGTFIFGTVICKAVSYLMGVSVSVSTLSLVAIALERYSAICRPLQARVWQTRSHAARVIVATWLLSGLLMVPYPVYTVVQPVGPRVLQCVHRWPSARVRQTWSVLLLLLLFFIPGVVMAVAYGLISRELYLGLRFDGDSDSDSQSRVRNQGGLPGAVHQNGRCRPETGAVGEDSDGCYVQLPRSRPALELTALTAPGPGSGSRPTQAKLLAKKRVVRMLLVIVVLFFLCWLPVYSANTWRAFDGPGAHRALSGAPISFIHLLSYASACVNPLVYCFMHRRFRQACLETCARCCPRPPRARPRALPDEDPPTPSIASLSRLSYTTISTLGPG

How did the activity [1, 12] turn out when `CNc1ccc(NCCc2ccccc2OC)cc1.Cl` [KDS12025, N^1-(2-methoxyphenethyl)-N^4-methylbenzene-1,4-diamine hydrochloride salt] was run?
Its activity is 97%.

And the activity [1, 13]?
Its activity is 107%.

And the activity [2]?
Its activity is 104%.

And the activity [3]?
Its activity is 81.8%.

What about the activity ([4]; mean) of the same compound?
The activity was 104%.

And the activity [4]?
Its activity is 106% and 101%.

And the activity [5]?
Its activity is 88.7%.

And the activity [6]?
Its activity is 109%.

What about the activity [7, 12] of the same compound?
The activity was 90.4%.

What about the activity [7, 13] of the same compound?
The activity was 88.2%.

What about the activity [8] of the same compound?
Its activity is 104%.

What about the activity [9, 12] of the same compound?
Its activity is 83.3%.

And the activity [9, 13]?
Its activity is 91.8%.

And the activity [10]?
Its activity is 91.4% and 100%.

What about the activity ([11]; mean) of the same compound?
The activity was 90.7%.

And the activity [11]?
The activity was 90.3% and 91.2%.

What about the “Sholl analysis, sum of intersections (stats entry 7h)” value (aged C57BL/6J mice) of the same compound?
Its value is 18 month (84.3±5.19, n=8), 30 month (44.4±5.44, n=9), 30 month+KDS (63.6±5.78, n=14) One-way ANOVA with Tukey's multiple comparisons test, F(2,28) = 9.65, p < 0.001 18 month vs. 30 month, p < 0.001; 18 month vs. 30 month+KDS, p = 0.05; 30 month vs. 30 month+KDS, p = 0.06.

What about the “NeuN-positive neurons in CA1 (NeuN intensity × neuron number)” value (aged C57BL/6J mice; Fig. 7f) of the same compound?
The value was 18 month (1694642±125526, n=6), 30 month (1149296±45876, n=4), 30 month+KDS (1820376±163596, n=6) One-way ANOVA with Tukey's multiple comparisons test, F(2,13) = 5.78, p = 0.02 18 month vs. 30 month, p = 0.05; 18 month vs. 30 month+KDS, p = 0.77; 30 month vs. 30 month+KDS, p = 0.02.

And the GFAP-positive area (aged C57BL/6J mice; Fig. 7g)?
Its GFAP-positive area is 18 month (272.5±20.8, n=44), 30 month (167.6±12, n=60), 30 month+KDS (212.0±12.4, n=76) One-way ANOVA with Tukey's multiple comparisons test, F(2,177) = 11.24, p < 0.001 18 month vs. 30 month, p < 0.001; 18 month vs. 30 month+KDS, p = 0.01; 30 month vs. 30 month+KDS, p = 0.06.

What about the “astrocytic Hbβ expression in the hippocampus” value (aged C57BL/6J mice; Fig. 7l) of the same compound?
Its value is 18 month (56.4±1.04, n=48), 30 month (49.5±1.7, n=40), 30 month+KDS (62.8±1.32, n=32) One-way ANOVA with Tukey's multiple comparisons test, F(2,117) = 21.5, p < 0.001 18 month vs. 30 month, p < 0.001; 18 month vs. 30 month+KDS, p = 0.004; 30 month vs. 30 month+KDS, p < 0.001.

What about the “MAOB intensity in GFAP-positive areas” value (aged C57BL/6J mice; Fig. S19b) of the same compound?
The value was 18 month (40.7±0.7, n=95), 30 month (71.5±1.04, n=66), 30 month+KDS (51.1±0.8, n=83) One-way ANOVA with Tukey's multiple comparisons test, F(2,241) = 354.7, p < 0.001 18 month vs. 30 month, p < 0.001; 18 month vs. 30 month+KDS, p < 0.001; 30 month vs. 30 month+KDS, p < 0.001.

What about the “GABA intensity in GFAP-positive areas” value (aged C57BL/6J mice; Fig. S19c) of the same compound?
The value was 18 month (50.7±0.7, n=95), 30 month (67.03±1.7, n=66), 30 month+KDS (69.2±1.3, n=83) One-way ANOVA with Tukey's multiple comparisons test, F(2,198) = 84.9, p < 0.001 18 month vs. 30 month, p < 0.001; 18 month vs. 30 month+KDS, p < 0.001; 30 month vs. 30 month+KDS, p = 0.47.

What about the “TH-positive neurons in the SNpc” value (aged C57BL/6J mice; Fig. S19d) of the same compound?
Its value is “Unaired t-test, two tailed 30 month (23.75±5.12, n=4), 30 month+KDS (40.2±2.67, n=5), p = 0.02 t = 3.03, df = 7”.

— PMC12373846, “Hemoglobin as a pseudoperoxidase and drug target for oxidative stress-related diseases” (Signal Transduction and Targeted Therapy, 2025)
